Laboratory results as given in the NIST ThermoML archive (doi:10.1021/je400373d).

Legend:
[1] = Liquid, Ebulliometric method (Recirculating still)
[2] = Boiling temperature at pressure P; settings: 101.33 kPa; Liquid; Ebulliometric method (Recirculating still)

OCCO [1,2-ethanediol]
[1]
Settings | vapor or sublimation pressure [kPa]
422.75 K | 20
422.8 K | 20
433.66 K | 30
433.71 K | 30
441.66 K | 40
441.7 K | 40
470.47 K | 101.3

CNCCO [2-(methylamino)ethanol]
[1]
Settings | vapor or sublimation pressure [kPa]
388 K | 20
388.04 K | 20
397.89 K | 30
397.95 K | 30
405.45 K | 40
405.48 K | 40
431.2 K | 101.3

Settings | Boiling temperature at pressure P [°C]
[2] | 158.1

CN(CCO)CCO [N-methyldiethanolamine]
[1]
Settings | vapor or sublimation pressure [kPa]
467.34 K | 20
467.4 K | 20
479.37 K | 30
479.4 K | 30
488.14 K | 40
488.17 K | 40
520.28 K | 101.3
